Tests used:
Assay type in all cases: cell-based, human
GLUT-5 mRNA = GLUT-5 mRNA by quantitative real-time RT-PCR in MCF-7 cells
Experimental: FIG. 10 depicts GLUT-5 expression levels in accordance with an embodiment of the present invention. MCF-7 breast cancer cells were incubated in 2 mM glucose (Glu), 5.5 mM glucose (Glu) or 5.5 mM fructose (Fru) for 4 or 24 hours, after which GLUT-5 expression was quantified using real-time RT-PCR, normalized to GAPDH levels, and expressed as fold-increase compared to GLUT-5 levels detected in MCF-7 cells cultured in 2 mM glucose for a similar time period.
Cellular fructose uptake is facilitated by a member of solute carrier family 2, called glucose transporter type 5 (GLUT-5). Following incubation of MCF-7 breast cancer cells in 2 mM, 5.5 mM glucose or 5.5 mM fructose for […], total RNA was harvested, and analyzed by quantitative real-time RT-PCR analysis using GLUT-5 specific primers to quantify GLUT-5 mRNA expression. GLUT-5 expression was normalized to GAPGH mRNA expression, and expressed as fold-change in comparison to control breast cancer cells incubated in 2 mM glucose for 4, and 24 hours.

[1] = test system: PANC-1 pancreatic cancer cells; test: PANC-1 pancreatic cancer cell proliferation (MTS assay)
Experimental: FIG. 13 depicts higher proliferation rates in pancreatic cancer cells in fructose (5.5 mM) than glucose (5.5 mM) containing medium in accordance with an embodiment of the present invention. PANC-1 cells were pre-incubated in 2 mM glucose, after which they were plated in 5.5 mM fructose or glucose for times between 12-72 h, after which proliferative rates were measured using an MTS assay. Proliferative rates are expressed as the percentage difference between cells grown in 5.5 mM fructose versus 5.5 mM glucose. p<0.01 for times>48 h.
FIG. 14 depicts proliferation rates of pancreatic cells in different fructose or glucose concentrations in accordance with an embodiment of the present invention. PANC-1 cells were plated in a range of fructose or glucose concentrations (5-25 mM) for 72 h, after which proliferative rates were measured using an MTS assay. *, p<0.05 for concentrations between 5-25 mM fructose versus glucose.
FIG. 17 depicts cell proliferation regardless of co-existent glucose concentration in accordance with an embodiment of the present invention. PANC-1 cells were pre-incubated in 2 mM glucose prior to treatment with a range of concentrations (0-15 mM) mixed with a range of fructose concentrations (0-15 mM) for 72 h. PANC-1 cell proliferative rates were then measured using the MTS assay (absorbance in arbitrary units).
FIG. 35 depicts inhibition of pancreatic cancer PANC-1 cell proliferation by incubation with the transketolase inhibitor, oxythiamine (0.5-2 mM) for 72 h in accordance with an embodiment of the present invention. Proliferative rates were measured using the MTS proliferation assay.
Standard media for maintenance cancer cell line culture, including pancreatic cancer cells such as PANC-1 cells contain either low—(5-7 mM), or high—(12-25 mM) glucose concentrations. Clearly, apart from the setting of hyperglycemia, as in patients with diabetes, the glucose concentrations in which pancreatic cancer cells are maintained in vitro are much higher than normal physiological conditions, which range between 2-5 mM glucose. […] Therefore, the inventors first pre-treated the pancreatic cancer cells overnight in standard DMEM medium containing low physiological glucose concentrations (2 mM glucose), and standard 10% fetal bovine serum. The pancreatic cancer cells were then incubated for times between 12, and 96 hours in standard DMEM medium containing 10% fetal bovine serum, and 5.5 mM glucose or 5.5 mM fructose. Proliferative rates were then measured in replicate (minimum of 6) aliquot wells of the pancreatic cancer cells, and the change (expressed as percent increase) in proliferative rates compared between cells grown in glucose, or fructose containing medium.
This first result intrigued the inventors, but given there is little documentation regarding physiological fructose concentrations, the inventors first considered that the “apparent” pro-proliferative effects of fructose were simply a consequence of the highly stylized in vitro experimental conditions, and that if the pancreatic cancer cells were cultured in higher glucose concentrations, this would result in similar proliferative rates to those the inventors observed following culture in 5.5 mM fructose. Therefore, in the next experiments, the inventors compared proliferative rates of the PANC-1 pancreatic cancer cells following culture for 72 h in a range of fructose, and glucose concentrations (2-25 mM). This timepoint was chosen as the inventors had seen maximal pancreatic cancer cell proliferation in 5.5 mM fructose at 72 h. […] While not wishing to be bound by any particular theory, the inventors believe that this latter finding may be because the PANC-1 cells are proliferating at close to maximal capacity by 72 h, once they are exposed to comparatively low fructose concentrations (5 mM). MTS assay was employed to measure pancreatic cancer cell proliferative rates, which utilizes mitochondrial oxidation to quantify cell proliferation. […]

[2] = test system: uric acid production in PANC-1 cells; test: Uricase activity / uric acid production in PANC-1 conditioned medium; conditions: 5.5 mM fructose
Experimental: FIG. 32 depicts uric acid productionin PANC-1 cells in accordance with an embodiment of the present invention. Uric acid production in pancreatic cancer PANC-1 cells following incubation in 2 mM glucose, 5.5 mM glucose, and 5.5 mM fructose for 24 h, 48, 72, and 96 h respectively, p<0.01 5.5 mM fructose versus 5.5 mM glucose.
Based on the metabolomic studies which led the inventors to believe that fructose was metabolized in pancreatic cancer cells in large part to generate nucleic acids, the inventors devised a series of experiments to examine nucleic acid synthesis in the pancreatic cancer cells following either glucose or fructose-treatment. PANC-1 cells were incubated as before in 5.5 mM glucose or fructose for 24 h, following an ELISA-based fluorimetric assay (Amplex Red Uric acid uricase assay kit, Invitrogen) was employed to measure uricase activity in conditioned medium derived from the pancreatic cancer cells (Shi Y, Evans J E, Rock K L. Molecular identification of a danger signal that alerts the immune system to dying cells Nature 425, 516-21, 2003). Uricase activity correlates highly with uric acid production, a purine by-product of nucleic acid synthesis. […] Fluoresence was measured in a fluorescence microplate reader using excitation at 530 nm and detection at 590 nm, and the assay can detect levels as low as 100 nM uric acid.

Structure (SMILES): O=C(CO)[C@@H](O)[C@H](O)[C@H](O)CO [fructose]
- increase in GLUT-5 mRNA compared to cells in 5.5 mM glucose (GLUT-5 mRNA; MCF-7, 5.5 mM fructose, 24 hour incubation): two-fold increase
- change in GLUT-5 mRNA expression (GLUT-5 mRNA; MCF-7, 4 hours, vs 2 mM glucose): no significant change
- difference in proliferative rates, fructose vs glucose ([1]; PANC-1, 5.5 mM fructose vs 5.5 mM glucose, 48 h): ~13%
- higher proliferative rate, fructose vs glucose ([1]; PANC-1, 5.5 mM fructose vs 5.5 mM glucose, 72 h): 23%
- proliferative rates in 5 mM fructose compared to 25 mM glucose ([1]; PANC-1, 72 h): higher proliferative rates
- cell proliferation with admixed glucose (0-15 mM) and fructose (0-15 mM) ([1]; PANC-1, 72 h, fructose concentrations of 6 mM and above, regardless of glucose concentration): an increase in cell proliferation
- uricase activity higher than glucose-treated cells ([2]; 96 h): ~20%
- uricase activity higher than glucose-treated cells ([2]; 120 h): ~50%
